Data as given in patent US20100304972A1, “HERBICIDE COMPOSITION” (priority 2007, published 2010).

Columns and labels:
Type in all cases: in vivo
Chenopodim album = experiment: Test Example 2: spray on plants from above ten days after sowing, herbicidal activity; details: sprayed on plants ten days after sowing, 21 days after treatment, scale 0-10
Cyperus esculentus = experiment: Test Example 4: soil spray on day of planting tubers, herbicidal activity; details: 14 days after treatment, scale 0-10
Source text: Field soil was filled in a plastic pot of 32 cm wide, 22 cm long and 8 cm high, and tubers of Cyperus esculentus were planted.
On the day of planting, each of an imazosulfuron suspension formulation (a 40% imazosulfuron-containing suspension formulation, trade name: Sibatite 40 manufactured by Sumitomo Chemical Co., Ltd.), a pendimethalin emulsifiable concentrate (a 30% pendimethalin-containing emulsifiable concentrate, trade name: Go-go-san 30 manufactured by BASF) and a mixed formulation prepared by mixing the imazosulfuron suspension formulation and the pendimethalin emulsifiable concentrate was diluted with water and uniformly sprayed on the soil with a small sprayer so that their amounts became those as shown in Table 4.
The plants were raised in a greenhouse and herbicidal activity was determined 14 days after the chemical treatment.

Stellaria media = experiment: Test Example 2: spray on plants from above ten days after sowing, herbicidal activity; details: sprayed on plants ten days after sowing, 21 days after treatment, scale 0-10
Procedure: (§1) The phytotoxicity to a crop is evaluated by indicating “harmless” in case that no or little phytotoxicity is recognized, “light” in case that light phytotoxicity is recognized, “medium” in case that medium phytotoxicity is recognized, or “severe” in case that severe phytotoxicity is recognized.
(§2) Field soil was filled in a plastic pot of 32 cm wide, 22 cm long and 8 cm high, and seeds of wheat (species: Norin No. 61), Sinapis arvensis, and Stellaria media were sowed thereon.
(§3) The plants were raised in a greenhouse and herbicidal activity and phytotoxicity were determined 21 days after the chemical treatment.

Sinapis arvensis = experiment: as above; details: sprayed on plants ten days after sowing, 21 days after treatment, scale 0-10
Procedure: as §1, §2, §3

[1] = test system: wheat (species: Norin No. 61); experiment: Test Example 2: spray on plants from above ten days after sowing, phytotoxicity to crop; details: 800 g/ha, sprayed on plants ten days after sowing, 21 days after treatment
Procedure: as §1, §2, §3

Compound | Herbicidal activity Ca (Chenopodim album; 100 g/ha) | Herbicidal activity (Cyperus esculentus; 25 g/ha) | Herbicidal activity Sm (Stellaria media; 100 g/ha) | Herbicidal activity Sa (Sinapis arvensis; 100 g/ha) | Herbicidal activity Ca (Chenopodim album; 800 g/ha) | Herbicidal activity (Cyperus esculentus; 50 g/ha) | Herbicidal activity (Cyperus esculentus; 200 g/ha) | Herbicidal activity Sm (Stellaria media; 800 g/ha) | Herbicidal activity Sa (Sinapis arvensis; 800 g/ha) | Phytotoxicity Wheat [1]
COc1cc(OC)nc(NC(=O)NS(=O)(=O)c2c(Cl)nc3ccccn23)n1 [Imazosulfuron, 1-(2-chloroimidazo[1,2-a]pyridin-3-ylsulfonyl)-3-(4,6-dimethoxypyrimidin-2-yl)urea] | 3 | 4 | 10 | 10 |  |  |  |  |  | 
CCC(CC)Nc1c([N+](=O)[O-])cc(C)c(C)c1[N+](=O)[O-] [Pendimethalin, N-(1-ethylpropyl)-3,4-dimethyl-2,6-dinitrobenzenamine] |  |  |  |  | 5 | 0 | 0 | 9 | 2 | harmless
